{
  "source": "PubChem BioAssay (NCI)",
  "note": "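48-hour exposure; five concentrations; linearly interpolated endpoints. At the GI50, growth is halved. At the TGI there is no net growth.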 Where a SMILES comes first, the peptide text is derived from it. The star is where a group is joined. Trt = c1ccc(C(c2ccccc2)(c2ccccc2)*)cc1; Cbz = O=C(OCc1ccccc1)*",
  "data": [
    {"tested_on": "EKVX NSCLC", "test": "DTP human tumour cell line panel, 48 h", "units": {"GI50": "µM", "TGI": "µM"}, "values": [
      {"compound": "COC(=O)C(CSC(c1ccccc1)(c1ccccc1)c1ccccc1)NC(=O)C(CC(N)=O)NC(=O)OCc1ccccc1", "note": "(stereo not drawn) (Cbz-Asn-Cys(Trt)-OMe; configuration not given here)", "GI50": 4.15, "TGI": 25.5},
      {"compound": "CCCCCCCCCCCCCCCCCC(=O)NCC(COP(=O)(O)O)OCC", "note": "(configuration not stated)", "TGI": "> 100"},
      {"compound": "CCCOC(=O)C1C2CCC(O2)C1C(=O)O", "note": "(configuration not stated)", "TGI": "> 100"},
      {"compound": "CCCCCCCCCCSC(=N)N", "GI50": 10.3, "TGI": 25.3},
      {"compound": "Cc1cc(Br)cc(C)c1NC(=O)C(=O)Nn1c(=S)[nH]c2ccccc2c1=O", "TGI": "> 100"},
      {"compound": "Cn1nc(-c2ccccc2)c(C(=O)/C=C/c2ccc(Cl)cc2)c(N2CCCC2)c1=O", "TGI": 32.4},
      {"compound": "O=C1C=Cc2ncccc2C1=O", "TGI": 47.5},
      {"compound": "C/C(CC(=O)Nc1cccc([N+](=O)[O-])c1)=N\\NC(=O)CC#N", "TGI": "> 100"},
      {"compound": "[CH3][Sn]1([CH3])[O]CC(COc2cc(Cl)c(Cl)cc2Cl)[O]1", "note": "(configuration not stated)", "GI50": 55.9, "TGI": "> 100"},
      {"compound": "CCc1cc(Cc2ccc(C)c(NC(=O)C(=O)C3C(=O)NC(=O)NC3=O)c2CC)cc(C)c1NC(=O)C(=O)C1C(=O)NC(=O)NC1=O", "TGI": "> 100"},
      {"compound": "Cc1ccc(/C=N/NS(=O)(=O)c2ccccc2)c(C)c1", "TGI": "> 100"},
      {"compound": "NNC(=O)C(O)C(O)C(=O)NN", "note": "(configuration not stated)", "TGI": "> 100"},
      {"compound": "C#CCOCn1cnc2ncnc(N)c21", "TGI": "> 100"},
      {"compound": "Cc1noc(/N=C2\\C=C(Nc3onc(C)c3C)C(=O)c3ccccc32)c1C", "TGI": "> 100"},
      {"compound": "CCCN1CCC=C(c2ccc(Nc3nc(Nc4ccccc4C(N)=O)c4cc[nH]c4n3)c(C)c2)C1", "GI50": "> 17.8", "TGI": "> 25"}
    ]},
    {"tested_on": "HCT-15 colon", "test": "DTP human tumour cell line panel, 48 h", "units": {"TGI": "µM", "GI50": "µM"}, "values": [
      {"compound": "CC1=C(N2CC2)C(=O)c2ccccc2C1=O", "TGI": 3.52},
      {"compound": "H-QIYKKYRTWYRKAWKVLGKV-NH2", "GI50": 2.92, "TGI": 17},
      {"compound": "O=S1(=O)c2ccccc2N=C(c2ccccc2Cl)CC1c1ccc(F)cc1", "note": "(configuration not stated)", "TGI": 35.6},
      {"compound": "CC1=CC(=O)NP(=O)(C23CC4CC(CC(C4)C2)C3)N1", "note": "(configuration not stated)", "TGI": "> 100"},
      {"compound": "COc1cc(/C=N/NC(=O)c2ccccc2Nc2cccc(C(F)(F)F)c2)cc(OC)c1OC", "GI50": 2.85, "TGI": 13.2},
      {"compound": "O=c1[nH]cc(C(F)(C(F)(F)F)C(F)(F)F)c(=O)[nH]1", "TGI": "> 100"},
      {"compound": "COc1ccc2c(c1)c1c3n2CCNN=C3CCC1", "TGI": "> 100"},
      {"compound": "CC(=O)[C-](C(C)=O)c1ccccc1.CC(=O)[C-](C(C)=O)c1ccccc1.CC(=O)[C-](C(C)=O)c1ccccc1.[Cl-].[Zr+4]", "GI50": "> 100", "TGI": "> 100"},
      {"compound": "CC(C)N1C(C)[C@@H](c2ccccc2)O[P@]1(=O)CC1=CCCCC1", "note": "(some centres not stated)", "TGI": "> 100"},
      {"compound": "CN=C(N)N/N=C(\\C)c1ccc2c(c1)Cc1ccccc1-2", "GI50": 1.83, "TGI": 3.86},
      {"compound": "COC(=O)C(=O)C(C(=O)C(=O)Nc1cc(Cl)c(Cl)cc1Cl)c1nc2ccc([N+](=O)[O-])cc2[nH]c1=O", "note": "(configuration not stated)", "TGI": "> 100"},
      {"compound": "COc1ccc(NC(=O)C2C(=O)N(c3ccc(OC)cc3)C(=O)/C2=N\\NC(N)=O)cc1", "note": "(configuration not stated)", "TGI": "> 100"},
      {"compound": "C/C(=N\\NS(=O)(=O)c1ccc([N+](=O)[O-])cc1)c1ccc[n+]([O-])n1", "TGI": 24.9},
      {"compound": "S=c1c2ccccc2c(=S)n2n1CC=CC2", "TGI": "> 100"},
      {"compound": "CC(C)(C)Sc1nnc(SC(C)(C)C)c2c(=O)[nH]nc(SC(C)(C)C)c12", "TGI": 16.4},
      {"compound": "COc1cc2c(cc1OCCCOc1ccc(-c3nc4ccc(N5CCN(C)CC5)cc4[nH]3)cc1)N=C[C@@H]1CCCN1C2=O", "GI50": "< 0.0212", "TGI": 42.8},
      {"compound": "N#CC(C(=O)CCCC(=O)Nc1ccc(Cl)cc1Cl)c1ccc(Cl)cc1", "note": "(configuration not stated)", "TGI": "> 100"},
      {"compound": "O=CCCCC(Sc1ccccc1)Sc1ccccc1", "TGI": 33.2},
      {"compound": "COC(=O)/C(=N\\Nc1nnc(C)n1N)C(C#N)c1ccccc1", "note": "(configuration not stated)", "TGI": "> 100"},
      {"compound": "CNC(c1ccncc1)C(NC)c1ccncc1", "note": "(configuration not stated)", "TGI": "> 100"},
      {"compound": "COc1ccc(C)cc1C1CCC(=O)O1", "note": "(configuration not stated)", "TGI": "> 100"},
      {"compound": "Cc1ccc2nc(NC(=O)C(=O)CC(=O)c3cccc4ccccc34)sc2c1", "TGI": "> 100"},
      {"compound": "COc1ccc(-c2nc(C(=O)c3ccccc3)n(CC(=O)c3ccc(Cl)cc3)c2-c2ccc(OC)cc2)cc1", "GI50": "> 100", "TGI": "> 100"},
      {"compound": "O=C1CCC(=O)c2sccc2N1", "TGI": "> 100"},
      {"compound": "COC(=O)C(CSC(c1ccccc1)(c1ccccc1)c1ccccc1)NC(=O)C(CC(N)=O)NC(=O)OCc1ccccc1", "note": "(stereo not drawn) (Cbz-Asn-Cys(Trt)-OMe; configuration not given here)", "GI50": 3.81, "TGI": 14.1},
      {"compound": "COc1cccc2c1cc1c3c(cc4c(c32)OCO4)C(=O)N1", "GI50": 4.14, "TGI": "> 100"},
      {"compound": "CCCOC(=O)C1C2CCC(O2)C1C(=O)O", "note": "(configuration not stated)", "TGI": "> 100"},
      {"compound": "CCCCCCCCCCSC(=N)N", "GI50": 2.01, "TGI": 4.73},
      {"compound": "Cc1cc(Br)cc(C)c1NC(=O)C(=O)Nn1c(=S)[nH]c2ccccc2c1=O", "TGI": "> 100"},
      {"compound": "Cn1nc(-c2ccccc2)c(C(=O)/C=C/c2ccc(Cl)cc2)c(N2CCCC2)c1=O", "TGI": "> 100"},
      {"compound": "O=C1C=Cc2ncccc2C1=O", "TGI": 33.5},
      {"compound": "[CH3][Sn]1([CH3])[O]CC(COc2cc(Cl)c(Cl)cc2Cl)[O]1", "note": "(configuration not stated)", "GI50": "> 100", "TGI": "> 100"},
      {"compound": "O=C(/C=C/c1ccccc1)CCC1C(=O)NC(=S)NC1=O", "TGI": "> 100"},
      {"compound": "CCc1cc(Cc2ccc(C)c(NC(=O)C(=O)C3C(=O)NC(=O)NC3=O)c2CC)cc(C)c1NC(=O)C(=O)C1C(=O)NC(=O)NC1=O", "TGI": "> 100"},
      {"compound": "CC(=O)OC(=O)O/C=C\\CCl", "TGI": "> 100"},
      {"compound": "Cc1ccc(/C=N/NS(=O)(=O)c2ccccc2)c(C)c1", "TGI": "> 100"},
      {"compound": "NNC(=O)C(O)C(O)C(=O)NN", "note": "(configuration not stated)", "TGI": "> 100"},
      {"compound": "Cc1noc(/N=C2\\C=C(Nc3onc(C)c3C)C(=O)c3ccccc32)c1C", "TGI": "> 100"},
      {"compound": "CCCN1CCC=C(c2ccc(Nc3nc(Nc4ccccc4C(N)=O)c4cc[nH]c4n3)c(C)c2)C1", "GI50": 8.98, "TGI": "> 25"}
    ]},
    {"tested_on": "HOP-92 NSCLC", "test": "DTP human tumour cell line panel, 48 h", "units": {"GI50": "nM", "TGI": "µM"}, "values": [
      {"compound": "H-QIYKKYRTWYRKAWKVLGKV-NH2", "GI50": 1950, "TGI": 4.81},
      {"compound": "O=S1(=O)c2ccccc2N=C(c2ccccc2Cl)CC1c1ccc(F)cc1", "note": "(configuration not stated)", "TGI": 34.6},
      {"compound": "CC1=CC(=O)NP(=O)(C23CC4CC(CC(C4)C2)C3)N1", "note": "(configuration not stated)", "TGI": "> 100"},
      {"compound": "O=c1[nH]cc(C(F)(C(F)(F)F)C(F)(F)F)c(=O)[nH]1", "TGI": "> 100"},
      {"compound": "COc1ccc2c(c1)c1c3n2CCNN=C3CCC1", "TGI": "> 100"},
      {"compound": "CC(=O)[C-](C(C)=O)c1ccccc1.CC(=O)[C-](C(C)=O)c1ccccc1.CC(=O)[C-](C(C)=O)c1ccccc1.[Cl-].[Zr+4]", "GI50": 44500, "TGI": "> 100"},
      {"compound": "CC(C)N1C(C)[C@@H](c2ccccc2)O[P@]1(=O)CC1=CCCCC1", "note": "(some centres not stated)", "TGI": 99.6},
      {"compound": "CN=C(N)N/N=C(\\C)c1ccc2c(c1)Cc1ccccc1-2", "GI50": 1630, "TGI": 5.67},
      {"compound": "COc1ccc(NC(=O)C2C(=O)N(c3ccc(OC)cc3)C(=O)/C2=N\\NC(N)=O)cc1", "note": "(configuration not stated)", "TGI": 84.9},
      {"compound": "C/C(=N\\NS(=O)(=O)c1ccc([N+](=O)[O-])cc1)c1ccc[n+]([O-])n1", "TGI": 8.3},
      {"compound": "S=c1c2ccccc2c(=S)n2n1CC=CC2", "TGI": "> 100"},
      {"compound": "CC(C)(C)Sc1nnc(SC(C)(C)C)c2c(=O)[nH]nc(SC(C)(C)C)c12", "TGI": 14.1},
      {"compound": "N#CC(C(=O)CCCC(=O)Nc1ccc(Cl)cc1Cl)c1ccc(Cl)cc1", "note": "(configuration not stated)", "TGI": "> 100"},
      {"compound": "COC(=O)/C(=N\\Nc1nnc(C)n1N)C(C#N)c1ccccc1", "note": "(configuration not stated)", "TGI": "> 100"},
      {"compound": "Cc1ccc2nc(NC(=O)C(=O)CC(=O)c3cccc4ccccc34)sc2c1", "TGI": 69.9},
      {"compound": "COc1ccc(-c2nc(C(=O)c3ccccc3)n(CC(=O)c3ccc(Cl)cc3)c2-c2ccc(OC)cc2)cc1", "GI50": "> 100000", "TGI": "> 100"},
      {"compound": "O=C1CCC(=O)c2sccc2N1", "TGI": "> 100"},
      {"compound": "COC(=O)C(CSC(c1ccccc1)(c1ccccc1)c1ccccc1)NC(=O)C(CC(N)=O)NC(=O)OCc1ccccc1", "note": "(stereo not drawn) (Cbz-Asn-Cys(Trt)-OMe; configuration not given here)", "GI50": 2640, "TGI": 14.9},
      {"compound": "COc1cccc2c1cc1c3c(cc4c(c32)OCO4)C(=O)N1", "GI50": 1710, "TGI": 6.98},
      {"compound": "CCCCCCCCCCCCCCCCCC(=O)NCC(COP(=O)(O)O)OCC", "note": "(configuration not stated)", "TGI": 42.4},
      {"compound": "CCCCCCCCCCSC(=N)N", "GI50": 1420, "TGI": 4.59},
      {"compound": "Cc1cc(Br)cc(C)c1NC(=O)C(=O)Nn1c(=S)[nH]c2ccccc2c1=O", "TGI": "> 100"},
      {"compound": "Cn1nc(-c2ccccc2)c(C(=O)/C=C/c2ccc(Cl)cc2)c(N2CCCC2)c1=O", "TGI": 6.94},
      {"compound": "O=C1C=Cc2ncccc2C1=O", "TGI": 42.5},
      {"compound": "C/C(CC(=O)Nc1cccc([N+](=O)[O-])c1)=N\\NC(=O)CC#N", "TGI": "> 100"},
      {"compound": "O=C(/C=C/c1ccccc1)CCC1C(=O)NC(=S)NC1=O", "TGI": "> 100"}
    ]}
  ]
}
